# Patent US8911805B2, “Calcium preparation and method of production thereof” (Toyo Suisan Kaisha, Ltd., priority 2010, dated 2014)
# System: bone loss in low-Ca fed rats
# Experiment: Oral study of solid preparation of calcium in rats (dry weight of tibia)
# Type: in vivo, Crl:CD (SD) rats
# Conditions: compared to the low calcium fed group; feed Ca content 0.5%, three weeks
# Experimental: A test for the improvement, effect of the solid preparation or calcium of the present invention on bone loss in low-Ca fed rats was performed using 5-week-old male Crl:CD (SD) rats. AIN-93M was administered to 4-week old rats. After habituation for one week, various kinds of feeds were administered to the rats for three weeks. As a basic feed, a feed obtained by modifying the content of calcium in AIN-93M to 0.2% (normal feed: 0.5%) was used.
# The test groups included the following six groups (one group: eight rats): a low calcium fed group to which a basic feed was administered; a group to which a basic feed containing calcium carbonate at a Ca content of 0.5% was administered; a group to which a basic feed containing freeze-dried powder of a C100P100Ca200K225 solution after aging (at 37° C. for two days) at a Ca content of 0.5% was administered; a group to which a basic feed containing freeze-dried powder of a C200P100Ca200K550 solution after aging (at 37° C. for one day) a Ca content of 0.5% was administered; a group to which a basic feed containing freeze-dried powder of a C100P100Ca200K225 solution before aging at a Ca content of 0.5% was administered; and a group to which basic feed containing calcium lactate at a Ca content of 0.5% was administered.
# After three weeks, the dry weight of the extracted tibia was measured. […]
smiles,measurement,value
O=C([O-])[O-].[Ca+2] [calcium carbonate],bone weight (dry weight of the extracted tibia),significantly increased
CC(O)C(=O)[O-].CC(O)C(=O)[O-].[Ca+2] (centres unmarked) [calcium lactate],bone weight (dry weight of the extracted tibia),significantly increased
